The numbers were not newly measured in PMC8216436, “Molecular docking and statistical optimization of taurocholate-stabilized galactose anchored bilosomes for the enhancement of sofosbuvir absorption and hepatic relative targeting efficiency” (Drug Delivery, 2020), which cites them from elsewhere.

Usually solubility stands for the dissolved amount per volume that the medium holds. As a reminder, the pKa is the negative logarithm of the acid dissociation constant.

For data set [1] the following is noted: 2017.
In the next data set the test system is P-glycoprotein (P-gp). Further details: method as in Shen et al., 2019. The following applies: efflux from GIT membrane cells and hepatocytes; ref Shen et al., 2019.
[2] abbreviates: oral, ref Rodríguez-Torres, 2013, Kirby et al., 2015, Cuenca-Lopez et al.

`CC(C)OC(=O)[C@H](C)N[P@](=O)(OC[C@H]1O[C@@H](n2ccc(=O)[nH]c2=O)[C@](C)(F)[C@@H]1O)Oc1ccccc1` [Sofosbuvir]: in data set [1] (setting [2]), the “administered dose absorbed through the portal circulation” value is 36.4%, the “hepatic availability of the administered dose” value is reported as 26.94% and the hepatic extraction is recorded as 74%. Further, the volume of distribution in data set [1] (ref Bhatia et al., 2014, Reznik & Ashby) was 127 L. Moreover, the “biopharmaceutics classification system class” value (high solubility and low permeability, ref Kirby et al., 2015) is recorded as “class III”. For the same compound, where the note is “ref Amidon et al., 1995”, the partition coefficient entry is recorded as “about 1.6” and the solubility is not below 2000 µg/mL. Further, the pKa (weak acid, ref Amidon et al., 1995) was 9.6. The “P-glycoprotein (P-gp) substrate” value with P-glycoprotein (P-gp) is listed as “substrate”.
